Measured values taken from PubChem BioAssay (NCI).
Where “and” joins values, the source holds several entries; their conditions need not be identical. Identical values can stand only once.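 Values below derive from 48-hour exposures of cells grown in 96-well plates, with endpoints linearly interpolated between the two concentrations bracketing the appropriate inhibition level. The concentration for 50% growth inhibition is given as GI50. Definition used: TGI = concentration required for complete inhibition of growth.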

Experiments:
Assay in all cases: NCI tumour cell line growth inhibition, 48 h
HOP-62 NSCLC = system: HOP-62 NSCLC
HT29 colon = system: HT29 colon
MOLT-4 leukemia = system: MOLT-4 leukemia
786-0 renal = system: 786-0 renal
HCC-2998 colon = system: HCC-2998 colon
SW-620 colon = system: SW-620 colon
TK-10 renal = system: TK-10 renal
EKVX NSCLC = system: EKVX NSCLC
IGROV1 ovarian = system: IGROV1 ovarian
UACC-257 melanoma = system: UACC-257 melanoma

SMILES | GI50 (HOP-62 NSCLC) | TGI (HOP-62 NSCLC) | GI50 (HT29 colon) | TGI (HT29 colon) | GI50 (MOLT-4 leukemia) | TGI (MOLT-4 leukemia) | GI50 (786-0 renal) | TGI (786-0 renal) | GI50 (HCC-2998 colon) | TGI (HCC-2998 colon) | GI50 (SW-620 colon) | TGI (SW-620 colon) | GI50 (TK-10 renal) | TGI (TK-10 renal) | GI50 (EKVX NSCLC) | TGI (EKVX NSCLC) | GI50 (IGROV1 ovarian) | TGI (IGROV1 ovarian) | GI50 (UACC-257 melanoma) | TGI (UACC-257 melanoma)
C[C@]12CCc3sc(Nc4ccc(OC(F)(F)F)cc4)nc3C1=CC[C@@H]1[C@@H]2CC[C@]2(C)C(=O)CC[C@@H]12 | 1.92 µM | 4.19 µM | 2.39 µM | 10.9 µM | 1.53 µM | 11.9 µM | 1.45 µM | 3.28 µM | 5.32 µM | 18.6 µM | 2.21 µM | 5 µM | 4.82 µM | 32 µM | 2.63 µM | 17.4 µM | 3.32 µM | 10.8 µM | 4.89 µM | 28.8 µM
CNC(=O)OCc1c(COC(=O)NC)c(-c2ccc(-c3ccccc3)cc2)n(C)c1C | – | 18.8 µM | – | 13.9 µM | – | 8.95 µM | – | 10.2 µM | – | 13.1 µM | – | 28.3 µM | – | 15.4 µM | – | 11.1 µM | – | 12 µM | – | 37.3 µM
CC(=O)Oc1cc2c(cc1OC(C)=O)C1(C)CCC2(C)c2cc(OC(C)=O)c(OC(C)=O)cc21 | – | 58.2 µM | – | > 100 µM | – | 96.1 µM | – | > 100 µM | – | 71.9 µM | – | 63.4 µM | – | 76.6 µM | – | > 100 µM | – | 72.3 µM | – | 40.4 µM
COc1ccc2c(c1)NC1=C(C(=O)OC1)C2c1cc(OC)c(OC)c(OC)c1 (stereo not drawn) | < 0.01 µM | 42.5 µM | < 0.01 µM | > 100 µM | < 0.01 µM | > 100 µM | < 0.01 µM | > 100 µM | < 0.01 µM | – | < 0.01 µM | > 100 µM | < 0.01 µM | > 100 µM | 12 µM | > 100 µM | < 0.01 µM | > 100 µM | < 0.01 µM | > 100 µM
CCOc1cc(C(C)(C)C)ccc1C1=N[C@H](c2ccc(Cl)cc2)[C@H](c2ccc(Cl)cc2)N1C(=O)N1CCN(CC#Cc2cccc3c2CN([C@@H]2CCC(=O)NC2=O)C3=O)CC1 | 0.115 µM | 16.3 µM | 2.41 µM | > 34.8 µM | 0.019 µM | > 100 µM | 1.32 µM | 42.8 µM | 0.905 µM | > 100 µM | 0.143 µM | > 100 µM | 2.41 µM | 44 µM | 3.98 µM | > 100 µM | 0.165 µM | > 33.5 µM | 1.85 µM | 14.8 µM
CN(C)CCC(=O)N1C/C(=C\c2ccc(Cl)c(Cl)c2)C(=O)/C(=C/c2ccc(Cl)c(Cl)c2)C1 | – | 0.941 µM | – | 0.495 µM | – | 1.7 µM | – | 0.323 µM | – | 0.955 µM | – | 0.349 µM | – | 1.58 µM | – | 1.53 µM | – | 0.648 µM | – | 2.53 µM
COCCOC(=O)C1=C(O)c2ccccc2S(=O)(=O)N1C | – | > 100 µM | – | > 100 µM | – | > 100 µM | – | > 100 µM | – | > 100 µM | – | > 100 µM | – | > 100 µM | – | > 100 µM | – | > 100 µM | – | > 100 µM
C[C@]12CC=CC(=O)[C@@]1(C)CCC(=O)C2 | – | > 100 µM | – | > 100 µM | – | > 100 µM | – | > 100 µM | – | > 100 µM | – | > 100 µM | – | > 100 µM | – | > 100 µM | – | > 100 µM | – | > 100 µM
C#CC1(O)C(COP(=O)(O)OCC(COP(=O)(O)OCC2OC(n3cc(F)c(=O)[nH]c3=O)CC2O)OCCCCCCCCCCCCCCCCCC)OC(n2ccc(N)nc2=O)C1O (stereo not drawn) | 0.0631 µM | 10.6 µM | 0.104 µM | > 71.9 µM | 0.348 µM | > 100 µM | 0.0379 µM | 17 µM | 0.0752 µM | 1.26 µM | 0.0269 µM | > 100 µM | 0.241 µM | > 29 µM | 0.618 µM | 25.8 µM | 0.236 µM | – | 0.448 µM | > 31.6 µM
O=C(NC(=O)c1c(F)cccc1F)Nc1cccc(Oc2ncc(Cl)cn2)c1 | – | 73.6 µM | – | > 46.4 µM | – | > 100 µM | – | > 100 µM | – | > 27.3 µM | – | > 100 µM | – | > 100 µM | – | > 100 µM | – | > 100 µM | – | > 100 µM
CCCCCCCCCCCC(=O)OCCOCCOCCOCCOCCOC(=O)CCCCCCCCCCC | – | > 100 µM | – | > 100 µM | – | > 100 µM | – | > 100 µM | – | > 100 µM | – | > 100 µM | – | > 100 µM | – | > 100 µM | – | > 100 µM | – | > 100 µM
N[C@H](C(=O)O)[C@@H]1CC(Cl)=NO1 | 6.27 µM | 170 µM | 7.44 µM | > 811 µM | 5.21 µM | > 806 µM | – | > 1000 µM | – | 329 µM | 7.48 µM | > 1000 µM | 34.5 µM | > 609 µM | 11.5 µM | 303 µM | 4.41 µM | 465 µM | 84.8 µM | > 1000 µM
C=CC(=O)N1CCC(Oc2cc3c(Nc4ccc(Cl)c(Cl)c4F)ncnc3cc2OC)CC1 | 3.88 µM and 3.1 µM | 25.1 µM and > 10 µM | 1.71 µM and 1.52 µM | 13.7 µM and > 9.34 µM | 3.38 µM and 2.13 µM | 17.9 µM and > 8.44 µM | 1.96 µM and 1.63 µM | 17.7 µM and > 10 µM | 7.61 µM and 2.52 µM | 24.8 µM and > 10 µM | 10.3 µM and 4.24 µM | 34.2 µM and > 10 µM | < 0.001 µM | 6.61 µM and 4.43 µM | < 0.001 µM | 17.2 µM and > 10 µM | 0.0855 µM and 0.0104 µM | 4.39 µM and 1.72 µM | 11.5 µM and 6.67 µM | 31.7 µM and > 10 µM
O=C1C=CC(=O)C2C1C1(Cl)C(Cl)=C(Cl)C2(Cl)C1(Cl)Cl (stereo not drawn) | 10.6 µM | 26.2 µM | 7.54 µM | 23.9 µM | 2.54 µM | 14.4 µM | 12.5 µM | 30.1 µM | 6.45 µM | 20.4 µM | 3.94 µM | 15.1 µM | 8.07 µM | 81 µM | 1.56 µM | 7.48 µM | 2.92 µM | 19.2 µM | 6.82 µM | 20 µM
NCCCNCCS | – | > 100 µM | – | > 100 µM | – | > 100 µM | > 100 µM and 49.5 µM | > 100 µM | – | > 100 µM | > 100 µM and 46.3 µM | > 100 µM | – | > 100 µM | – | > 100 µM | – | > 100 µM | – | > 100 µM
